In one experiment the target is T1, SIK3 (Homo sapiens, UniProt Q9Y2K2).
T1 construct: purchased SignalChem S12-11G-100
Put plainly: ADP-Glo kinase assay, SIK3. The settings on record: ADP-Glo SIK kinase assay. It counts as biochemical. The essentials: (§1)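 Wells with 1% DMSO or 10 μM staurosporine (final) define the control window. The kinase reaction with substrate and ATP runs 120 min at RT, followed by ADP-Glo detection: ATP depletion (40 min) and ADP-derived luminescence (30 min).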

In another experiment the target is T2, SIK2 (Homo sapiens, UniProt Q9H0K1).
T2 construct: purchased ThermoFisher Scientific PV4792
Put plainly: ADP-Glo kinase assay, SIK2. The settings on record: ADP-Glo SIK kinase assay. It counts as biochemical. The essentials: as §1
A general note: ADP-Glo first removes unused ATP, then detects ADP through luciferase.

Experiment [1] has as its system LPS-induced TNFα in monocyte-derived macrophages (MdM). Kind of experiment: MdM assay: LPS-triggered TNFα (ELISA). The settings on record: Homo sapiens, Macrophage, 20 h, monocyte-derived macrophages, LPS 200 ng/mL, supernatant after 20 h; read-out: TNFα EC50. It counts as cell-based, human. The procedure, abridged: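 Compound added 1 h before LPS (200 ng/mL final) to day-10 macrophages derived from magnetically isolated CD14+ human blood monocytes, DMSO held at 0.2%. TNFα secreted over 20 h of stimulation quantified by ELISA against a standard curve.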
A general note: ELISA stands for enzyme-linked immunosorbent assay.

The target of another experiment is T3, SIK1 (Homo sapiens, UniProt P57059).
T3 construct: purchased Carna Biosciences 02-131
Kind of experiment: ADP-Glo kinase assay, SIK1. The class given is biochemical. The settings on record: ADP-Glo SIK kinase assay. The essentials: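 Enzyme–substrate mix was started with ATP and incubated 120 min at RT. ADP formed was quantified by ADP-Glo: 40 min ATP depletion, then 30 min detection reagent converting ADP to ATP for luciferase luminescence, which rises with kinase activity. Controls: 1% DMSO and 10 μM staurosporine (final).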

The next experiment deals with IL-10. Kind of experiment: Mouse LPS-induced endotoxic shock, plasma IL-10. Also noted: key: +: statistically significant induction of IL-10; −: no effect on the level of IL-10. The settings on record: 3 mg/kg, p.o.; plasma 90 min after LPS challenge. The class given is in vivo. On the procedure:
(§2) Injection of lipopolysaccharide (LPS) induces a rapid release of soluble tumour necrosis factor (TNFα) into the periphery. This model was used to assess prospective blockers of TNFα release in vivo.
(§3) Lipopolysaccharide (LPS) from Escherichia Coli serotype O111:B4 was obtained from Sigma Aldrich (Cat #L2630).
(§4) BALB/cAnNCrl mice (female, 18-20 g body weight) were obtained from Charles River (Calco, Italy). Mice were kept on a 12 h light/dark cycle. Temperature was maintained at 22±2° C., food and water were provided ad libitum.
(§5) Mice were dosed once by oral (p.o.) or subcutaneous (sc) route with the tested compound in the appropriate vehicle.
(§6) At the Tmax of compound, 100 μg of LPS (in H2O) was injected intraperitoneally to mice. A control group was included which comprises administering the vehicle without an LPS challenge.
(§7) Mice were sacrificed 90 min after LPS challenge and blood was collected in heparinised tubes. Plasma was obtained by centrifugation for 15 min, 2000×g at +4° C. and frozen at −80° C. before cytokine analysis.
(§8) TNFα and IL-10 were quantified in plasma by AlphaLISA detection kits obtained from PerkinElmer (Massachusetts, USA), Cat4 AL505C and AL502C, respectively.
(§9) Statistics were performed with Prism 5.03 software (GraphPad) using an ANOVA analysis of variance with Dunnett's post-hoc test versus LPS group.
(§10) Active compounds were defined as showing a statistically significant decrease in TNFα with or without a statistically significant induction of IL-10

The next experiment has as its system TNFα. Kind of experiment: Mouse LPS-induced endotoxic shock, plasma TNFα. It counts as in vivo. The settings on record: 3 mg/kg, p.o.; plasma 90 min after LPS challenge. Also noted: key: +: statistically significant inhibition of TNFα; −: no effect on the level of TNFα. The procedure: as §2, §3, §4, §5, §6, §7, §8, §9, §10
The subject of experiment [2] is LPS-induced TNFα in monocytes. Kind of experiment: Monocytes assay: LPS-triggered TNFα (ELISA). The class given is cell-based, human. Particulars: Homo sapiens, Monocyte, 4 h, LPS 200 ng/mL, supernatant after 4 h. The procedure, abridged: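 Supernatant TNFα was quantified by luminol-based sandwich ELISA after 4 h stimulation with LPS (200 ng/mL final). The cells were CD14-bead-purified monocytes from human PBMCs, 100 000 per well, exposed to 3-fold compound dilutions for 1 h at 37° C beforehand, with DMSO at 0.2%. Results are reported as percent inhibition.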

The subject of experiment [3] is LPS triggered IL-10 secretion in monocytes. Put plainly: Monocytes assay: LPS-triggered IL-10 (ELISA). The class given is cell-based, human. Particulars: LPS 200 ng/mL, supernatant after 4 h, maximal fold change vs LPS only. The procedure, abridged: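 Human CD14+ monocytes, magnetically isolated from buffy-coat PBMCs, were seeded at 100 000 cells/well and preincubated with compound for 1 h at 37° C (0.2% DMSO). LPS was then added at a final 200 ng/mL for 4 h. Supernatant IL-10 was quantified by chemiluminescent sandwich ELISA against a standard curve.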

Data on two compounds can be found in patent US12264156B2, “Compounds and pharmaceutical compositions thereof for the treatment of diseases” (GALAPAGOS NV, priority 2018, dated 2025).

Broadly, the IC50 is the concentration that gives 50% inhibition. The term EC50 denotes the midpoint of the concentration-response curve.

T3 sequence (P57059 whole entry): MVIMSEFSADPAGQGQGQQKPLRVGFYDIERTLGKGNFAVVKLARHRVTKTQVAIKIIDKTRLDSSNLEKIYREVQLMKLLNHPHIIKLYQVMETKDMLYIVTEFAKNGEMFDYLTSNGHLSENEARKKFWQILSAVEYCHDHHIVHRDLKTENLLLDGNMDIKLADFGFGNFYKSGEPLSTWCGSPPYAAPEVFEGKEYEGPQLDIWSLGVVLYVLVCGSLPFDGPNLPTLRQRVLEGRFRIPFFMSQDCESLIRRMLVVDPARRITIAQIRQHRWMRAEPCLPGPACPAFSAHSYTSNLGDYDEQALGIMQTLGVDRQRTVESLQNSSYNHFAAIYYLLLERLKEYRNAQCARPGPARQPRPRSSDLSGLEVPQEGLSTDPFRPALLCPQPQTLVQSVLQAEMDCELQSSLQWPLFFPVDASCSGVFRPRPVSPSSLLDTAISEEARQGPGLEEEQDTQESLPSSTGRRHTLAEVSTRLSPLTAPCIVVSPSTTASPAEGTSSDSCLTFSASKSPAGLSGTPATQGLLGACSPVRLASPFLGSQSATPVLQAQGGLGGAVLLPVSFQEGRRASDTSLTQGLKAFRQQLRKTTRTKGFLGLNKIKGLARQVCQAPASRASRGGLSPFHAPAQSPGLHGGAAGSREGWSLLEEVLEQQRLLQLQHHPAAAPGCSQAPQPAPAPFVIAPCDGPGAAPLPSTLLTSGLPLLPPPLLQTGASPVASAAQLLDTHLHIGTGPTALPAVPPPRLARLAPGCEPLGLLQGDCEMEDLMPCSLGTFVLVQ
T1 sequence (Q9Y2K2 whole entry): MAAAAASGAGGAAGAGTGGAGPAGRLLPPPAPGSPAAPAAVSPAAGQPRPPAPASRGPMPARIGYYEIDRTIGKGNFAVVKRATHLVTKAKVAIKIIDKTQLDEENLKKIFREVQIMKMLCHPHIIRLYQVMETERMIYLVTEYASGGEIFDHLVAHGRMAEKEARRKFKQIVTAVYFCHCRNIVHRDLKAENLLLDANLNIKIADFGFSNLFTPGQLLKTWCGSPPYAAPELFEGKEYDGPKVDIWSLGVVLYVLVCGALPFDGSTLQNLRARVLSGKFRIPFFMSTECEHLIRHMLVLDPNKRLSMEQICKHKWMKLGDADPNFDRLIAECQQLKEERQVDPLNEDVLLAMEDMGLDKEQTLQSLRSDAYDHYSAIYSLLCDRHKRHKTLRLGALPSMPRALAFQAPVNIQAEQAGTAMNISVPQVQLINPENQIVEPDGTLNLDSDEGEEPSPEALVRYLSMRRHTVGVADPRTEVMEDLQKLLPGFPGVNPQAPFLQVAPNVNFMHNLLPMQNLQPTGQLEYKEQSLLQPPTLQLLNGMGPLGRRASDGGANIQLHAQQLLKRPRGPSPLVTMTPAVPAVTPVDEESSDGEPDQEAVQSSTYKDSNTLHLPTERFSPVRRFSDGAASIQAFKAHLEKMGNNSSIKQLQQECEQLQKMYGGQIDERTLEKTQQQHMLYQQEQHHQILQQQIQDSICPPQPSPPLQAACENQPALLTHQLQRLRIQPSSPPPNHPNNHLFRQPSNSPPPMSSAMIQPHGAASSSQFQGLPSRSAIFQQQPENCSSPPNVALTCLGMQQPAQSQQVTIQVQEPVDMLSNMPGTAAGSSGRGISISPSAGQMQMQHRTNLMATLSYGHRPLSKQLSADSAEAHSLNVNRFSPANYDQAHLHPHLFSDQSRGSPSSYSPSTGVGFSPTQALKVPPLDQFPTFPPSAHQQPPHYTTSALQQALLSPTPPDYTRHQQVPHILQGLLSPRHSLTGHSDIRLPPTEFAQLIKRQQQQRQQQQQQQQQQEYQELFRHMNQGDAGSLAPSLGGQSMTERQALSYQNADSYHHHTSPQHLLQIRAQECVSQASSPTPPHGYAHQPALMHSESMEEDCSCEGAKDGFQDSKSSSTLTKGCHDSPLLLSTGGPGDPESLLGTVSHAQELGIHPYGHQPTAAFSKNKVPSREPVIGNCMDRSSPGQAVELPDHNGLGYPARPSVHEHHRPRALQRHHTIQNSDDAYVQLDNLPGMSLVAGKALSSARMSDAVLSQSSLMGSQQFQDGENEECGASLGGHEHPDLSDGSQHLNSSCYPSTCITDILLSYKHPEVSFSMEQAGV
T2 sequence (Q9H0K1 whole entry): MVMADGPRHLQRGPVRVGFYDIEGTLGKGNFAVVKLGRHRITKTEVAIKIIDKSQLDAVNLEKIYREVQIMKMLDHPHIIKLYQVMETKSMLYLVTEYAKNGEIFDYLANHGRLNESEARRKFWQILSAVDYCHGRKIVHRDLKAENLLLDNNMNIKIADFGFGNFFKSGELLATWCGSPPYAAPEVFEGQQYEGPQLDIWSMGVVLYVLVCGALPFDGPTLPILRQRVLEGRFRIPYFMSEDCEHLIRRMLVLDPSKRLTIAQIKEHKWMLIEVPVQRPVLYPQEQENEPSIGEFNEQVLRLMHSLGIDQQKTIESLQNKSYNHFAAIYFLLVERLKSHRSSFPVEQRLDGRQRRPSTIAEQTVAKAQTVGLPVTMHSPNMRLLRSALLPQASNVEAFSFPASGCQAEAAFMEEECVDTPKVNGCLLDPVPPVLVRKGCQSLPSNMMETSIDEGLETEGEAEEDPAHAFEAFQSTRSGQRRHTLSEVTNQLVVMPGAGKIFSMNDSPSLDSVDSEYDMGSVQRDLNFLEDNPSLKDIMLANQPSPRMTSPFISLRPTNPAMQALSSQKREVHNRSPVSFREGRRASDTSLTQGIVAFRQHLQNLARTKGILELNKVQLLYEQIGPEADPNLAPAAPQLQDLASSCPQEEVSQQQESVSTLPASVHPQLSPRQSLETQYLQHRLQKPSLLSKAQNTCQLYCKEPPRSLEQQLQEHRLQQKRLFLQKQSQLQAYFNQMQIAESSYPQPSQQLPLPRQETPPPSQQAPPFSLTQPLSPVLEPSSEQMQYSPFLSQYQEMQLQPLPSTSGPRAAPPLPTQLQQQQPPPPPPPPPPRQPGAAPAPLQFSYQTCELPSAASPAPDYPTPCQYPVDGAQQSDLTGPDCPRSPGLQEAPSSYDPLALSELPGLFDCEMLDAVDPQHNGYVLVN

Consider `COc1cc(-c2cnc3cc(OCCCN4CCCCC4)ccn23)cc(OC(F)F)c1C(=O)NC1CC1` [compound 16, N-cyclopropyl-2-(difluoromethoxy)-6-methoxy-4-[7-[3-(1-piperidyl)propoxy]imidazo [1,2-a]pyridin-3-yl]benzamide], for which the concentration for half-maximal inhibition (IC50) against SIK3 lay within 0.01 to 10 nM; against SIK2, 0.01 to 10 nM; on SIK1 it was 10 to 100 nM. For the same compound, the EC50 in experiment [1] fell in the range of 0.1 to 100 nM. Further, in the experiment with IL-10, the IL-10 entry is recorded as “−”. Besides, the TNFα entry with TNFα is recorded as “−”.

On to `COc1cc(-c2cnc3cc(OCCNC(=O)C(F)F)ccn23)cc(OC(F)F)c1C(=O)NC1CC1` [Cpd 371, N-cyclopropyl-4-[7-[2-[(2,2-difluoroacetyl)amino]ethoxy]imidazo[1,2-a]pyridin-3-yl]-2-(difluoromethoxy)-6-methoxy-benzamide], for which the IC50 at SIK3, against SIK2 and against SIK1 was 0.01 to 10 nM in each case. The same compound came in with an EC50 in experiment [2] of 100 to 1000 nM. For the same compound, the “IL-10 FCmax median” value in experiment [3] is recorded as “++ (>1.5-4.5)”.
